What was measured:
[1] = tested on: HCV replicon in human hepatoma Huh-7 cell line; assay: Anti-HCV replicon assay, EC50 (luciferase luminescence); type: cell-based; details: Hepatitis C virus, Huh-7, 72 h
Method: (§1) The anti-HCV activity of the pyrido[3,2-d]pyrimidine derivatives of this invention was tested in a human hepatoma Huh-7 cell line harboring a HCV replicon. The assay comprised the following steps: • Step 1: compound preparation and serial dilution: serial dilution is performed in 50% DMSO in a 384-well plate. A solution containing a compound at 100-fold concentration of the starting final serial dilution concentration was prepared in 50% DMSO and added to the pre-specified wells in column 1 of a polypropylene 384-well plate. The plate was then placed on a Precision 2000 Workstation to start the serial dilution. After the serial dilution, a volume of 2 μL of the solution was transferred from the 384-well plate to a 96-well cell culture plate containing 100 μL of cell media on a Biomek FX Workstation. The DMSO concentration in the final assay condition was 0.5% after cells are added to the plate and the total volume in each well is brought to 200 μL. • Step 2: to each well of the serial dilution plate prepared above, 100 μL of cell media containing 6000 suspended Huh-7 HCV replicon cells was added with a Multidrop workstation. The plates were incubated for 3 days at 37° C. with 5% CO2. • Step 3: detection: • a) for the EC50 assay, the media in a 96-well cell culture plate was aspirated with a Biotek EL405 plate-washer. A volume of 200 μL of a solution containing a 1:1 mixture of cell-lysis buffer (Promega, Luciferase Cell Culture Lysis 5× Reagent, cat. #E1531) and luciferase substrate solution (Promega, Luciferase Assay, cat.# E4550) was added to each well of the plate with Multidrop. The plate was incubated for 30 minutes at room temperature before the luminescence signal was measured with a TopCount plate-reader. • b) for the CC50 assay, a volume of 100 μL of pre-mixed CellTiter-Glo (Promega, cat.# G7572) solution is added directly to the cell culture in each well of the plate and the luminescence signal is measured with a TopCount plate-reader after 10 minutes of incubation at room temperature.

[2] = CC50 assay (CellTiter-Glo) in Huh-7 HCV replicon cells; type: cell-based; details: human
Method: as §1

Structure (SMILES)	EC50 [1] [µM]	CC50 at 3 days ([2]; Table 2, 3 days incubation) [µM]	CC50 at 3 days ([2]; Table 1, 3 days incubation) [µM]
NS(=O)(=O)c1ccc(CNc2nc(NC3(C(F)(F)F)CC3)c3nc(C#CC4CC4)ccc3n2)cc1 [Example 92, 4-((6-(2-cyclopropylethynyl)-4-(1-(trifluoromethyl)cyclopropyl-amino)pyrido[3,2-d]pyrimidin-2-ylamino)methyl)benzene-sulfonamide]	< 0.1	1 to 10	–
Cc1ccc(-c2ccc3nc(NCc4ccc(S(N)(=O)=O)cc4)nc(NCC(F)(F)F)c3n2)cc1S(C)(=O)=O [Example 143, 4-((6-(4-methyl-3-(methylsulfonyl)phenyl)-4-(2,2,2-trifluoroethylamino)pyrido[3,2-d]pyrimidin-2-ylamino)methyl)benzene-sulfonamide]	< 0.1	> 10	–
CCOc1ccc(-c2ccc3nc(N[C@H](C)c4ccc(S(N)(=O)=O)cc4)nc(OC4(C)CC4)c3n2)cc1S(N)(=O)=O [Example 264, 4-((R)-1-(6-(4-ethoxy-3-(aminosulfonyl)phenyl)-4-(1-methylcyclopropoxy)pyrido [3,2-d]pyrimidin-2-ylamino)ethyl)benzenesulfonamide]	< 0.1	1 to 10	–
CC(C)(C)Oc1nc(NCc2ccc(-n3cncn3)cc2)nc2ccc(-c3cccc(S(C)(=O)=O)c3)nc12 [Example 197, N-(4-(1H-1,2,4-triazol-1-yl)benzyl)-4-tert-butoxy-6-(3-(methylsulfonyl)phenyl)pyrido [3,2-d]pyrimidin-2-amine]	< 0.1	> 10	–
CC(Cn1cncn1)Nc1nc(NC2(C(F)(F)F)CC2)c2nc(-c3ccc(NC4CC4)nc3)ccc2n1 (stereo not shown) [Example 114, N^2-(1-(1H-1,2,4-triazol-1-yl)propan-2-yl)-6-(6-(cyclopropylamino)pyridin-3-yl)-N^4-(1-(trifluoromethyl)cyclopropyl)pyrido[3,2-d] pyrimidine-2,4-diamine]	< 0.1	> 10	–
COc1ccc(-c2ccc3nc(NCc4cccnc4)nc(NCC(F)(F)F)c3n2)cc1S(C)(=O)=O [Example 166, 6-(4-methoxy-3-(methylsulfonyl)phenyl)-N^2-(pyridin-3-ylmethyl)-N^4-(2,2,2-trifluoroethyl)pyrido [3,2-d]pyrimidine-2,4-diamine]	< 0.1	1 to 10	–
CS(=O)(=O)c1cccc(CNc2nc(NC3(C(F)(F)F)CC3)c3nc(-c4ccc(F)cc4C#N)ccc3n2)c1 [Example 104, 2-(2-(3-(methylsulfonyl)benzylamino)-4-(1-(trifluoromethyl)cyclopropyl-amino)pyrido[3,2-d]pyrimidin-6-yl)-5-fluorobenzonitrile]	0.1 to 0.25	> 10	–
CS(=O)(=O)c1cccc(CNc2nc(NC3(C(F)(F)F)CC3)c3nc(-c4ccc(F)cc4)ccc3n2)c1 [Example 86, N^2-(3-(methylsulfonyl)benzyl)-6-(4-fluorophenyl)-N^4-(1-(trifluoromethyl)cyclopropyl) pyrido[3,2-d]pyrimidine-2,4-diamine]	< 0.1	> 10	–
C[C@@H](Nc1nc(NCC(F)(F)F)c2nc(-c3cncc(S(C)(=O)=O)c3)ccc2n1)c1ccc(S(N)(=O)=O)cc1 [Example 156, 4-((R)-1-(6-(5-(methylsulfonyl)pyridin-3-yl)-4-(2,2,2-trifluoroethylamino)pyrido [3,2-d]pyrimidin-2-ylamino)ethyl)benzenesulfonamide]	0.25 to 2	> 10	–
CS(=O)(=O)c1cccc(-c2ccc3nc(NCc4cccc(S(N)(=O)=O)c4)nc(NCC(F)(F)F)c3n2)c1 [Example 14, 3-{[6-(3-Methanesulfonyl-phenyl)-4-(2,2,2-trifluoro-ethylamino)-pyrido[3,2-d]pyrimidin-2-ylamino]-methyl}-benzenesulfonamide]	< 0.1	–	10 to 25
COc1ccc(-c2ccc3nc(NCc4cc(F)cc(F)c4)nc(NC4(C(F)(F)F)CC4)c3n2)cc1S(C)(=O)=O [Example 40, N^2-(3,5-difluorobenzyl)-6-(4-methoxy-3-(methylsulfonyl)phenyl)-N^4-(1-(trifluoromethyl)cyclopropyl)pyrido[3,2-d] pyrimidine-2,4-diamine]	< 0.1	1 to 10	–
CC1(Oc2nc(NCc3cc(Cl)cc(S(N)(=O)=O)c3)nc3ccc(C#CC4CC4)nc23)CC1 [Example 301, 3-chloro-5-((6-(2-cyclopropyl-ethynyl)-4-(1-methylcyclo-propoxy)pyrido[3,2-d]pyrimidin-2-ylamino)methyl) benzenesulfonamide]	< 0.1	> 10	–
NS(=O)(=O)c1ccc(CNc2nc(NC3(C(F)(F)F)CC3)c3nc(-c4ccc(N5CCCS5(=O)=O)cc4)ccc3n2)cc1 [Example 130, 4-((6-(4-(1,1-dioxo-isothiazolidin-2-yl)phenyl)-4-(1-(trifluoromethyl)cyclopropyl-amino)pyrido[3,2-d]pyrimidin-2-ylamino)methyl)benzene-sulfonamide]	< 0.1	< 1	–
C[C@@H](Nc1nc(OC2CC2)c2nc(-c3ccc(F)cc3)ccc2n1)c1ccc(S(N)(=O)=O)cc1 [Example 13, (R)-4-{1-[6-(4-Fluoro-phenyl)-4-cyclopropoxy-pyrido[3,2-d]pyrimidin-2-ylamino]-ethyl}-benzenesulfonamide]	0.1 to 0.25	–	10 to 25
Cc1nc(C)n(-c2ccc(CNc3nc(OC4(C)CC4)c4nc(-c5ccc(OC(F)F)c(S(C)(=O)=O)c5)ccc4n3)cc2)n1 [Example 205, N-(4-(3,5-dimethyl-1H-1,2,4-triazol-1-yl)benzyl)-6-(4-(difluoromethoxy)-3-(methylsulfonyl)phenyl)-4-(1-methylcyclopropoxy)pyrido [3,2-d]pyrimidin-2-amine]	< 0.1	> 10	–
CS(=O)(=O)c1cccc(-c2ccc3nc(NCC(O)CO)nc(NCC(F)(F)F)c3n2)c1 (stereo not shown) [Example 158, 3-(6-(3-(methylsulfonyl)phenyl)-4-(2,2,2-trifluoroethylamino)pyrido[3,2-d]pyrimidin-2-ylamino)propane-1,2-diol]	0.25 to 2	> 10	–
COc1ccc(-c2ccc3nc(NC(C)c4cc(F)cc(F)c4)nc(NCC(F)(F)F)c3n2)cc1S(N)(=O)=O (stereo not shown) [Example 235, 5-(2-(1-(3,5-difluorophenyl)ethylamino)-4-(2,2,2-trifluoroethylamino)pyrido [3,2-d]pyrimidin-6-yl)-2-methoxybenzenesulfonamide]	0.1 to 0.25	1 to 10	–
Nc1ccc(-c2ccc3nc(NCc4cccc(-n5cncn5)c4)nc(NC4(C(F)(F)F)CC4)c3n2)cn1 [Example 73, N^2-(3-(1H-1,2,4-triazol-1-yl)benzyl)-6-(6-aminopyridin-3-yl)-N^4-(1-(trifluoromethyl)cyclopropyl)pyrido[3,2-d] pyrimidine-2,4-diamine]	< 0.1	1 to 10	–
c1ncn(-c2ccc(CNc3nc(OC4CC4)c4nc(-c5ccc(OC6CC6)nc5)ccc4n3)cc2)n1 [Example 248, N-(4-(1H-1,2,4-triazol-1-yl)benzyl)-4-cyclopropoxy-6-(6-cyclopropoxypyridin-3-yl)pyrido[3,2-d]pyrimidin-2-amine]	< 0.1	1 to 10	–
CC(Cn1cncn1)Nc1nc(NC2(C(F)(F)F)CC2)c2nc(-c3ccc(N)nc3)ccc2n1 (stereo not shown) [Example 31, 6-(6-amino-pyridin-3-yl)-N2-(1-methyl-2-[1,2,4]triazol-1-yl-ethyl)-N4-(1-trifluoromethyl-cyclopropyl)-pyrido[3,2-d]pyrimidine-2,4-diamine]	< 0.1	> 10	–
C[C@H](Nc1nc(NCc2ccc(-n3cncn3)cc2)nc2ccc(C#CC3CC3)nc12)C(F)(F)F [Example 292, (S)-N^2-(4-(1H-1,2,4-triazol-1-yl)benzyl)-6-(2-cyclopropyl-ethynyl)-N^4-(1,1,1-trifluoro-propan-2-yl)pyrido[3,2-d] pyrimidine-2,4-diamine]	0.25 to 2	> 10	–
CC[C@@H](Nc1nc(NCC(F)(F)F)c2nc(-c3ccc(OC)c(S(C)(=O)=O)c3)ccc2n1)c1ccc(S(N)(=O)=O)cc1 [Example 154, 4-((R)-1-(6-(4-methoxy-3-(methylsulfonyl)phenyl)-4-(2,2,2-trifluoroethylamino)pyrido[3,2-d]pyrimidin-2-ylamino)propyl)benzene-sulfonamide]	0.1 to 0.25	> 10	–
CCOc1ccc(-c2ccc3nc(NCc4ccc(-n5ccnc5)cc4)nc(NCC(F)(F)F)c3n2)cc1S(N)(=O)=O [Example 262, 5-(2-(4-(1H-imidazol-1-yl)benzylamino)-4-(2,2,2-trifluoroethylamino)pyrido [3,2-d]pyrimidin-6-yl)-2-ethoxybenzenesulfonamide]	< 0.1	1 to 10	–
